Like-named read-outs stand apart in the source and are kept apart here.
Experiments:
[1] = Plasma PK of rosuvastatin and oral contraceptives with and without rucaparib (phase 1 DDI study, noncompartmental analysis); format: in vivo, human; settings: for detected in human plasma up to (postdose): 30 µg dose, LC–MS/MS; for AUC(0-inf) / AUC(0-t) / Cmax / half-life / Vd/F / Tmax: human; for AUC(0-inf) / AUC(0-t) / Cmax / half-life / Vd/F: po; for Tmax: read-out: tmax, Median (range); for change of median tmax with rucaparib: with vs without rucaparib
Text: This was a 2-part, phase 1, open-label, 2-arm DDI study in patients with advanced solid tumors. In Part 1 of the study, patients were screened for eligibility from day − 28 to − 2 and visited the study site from day − 1 to 23 (Fig. 1). […] To check steady-state plasma concentrations for rucaparib, a blood sample was collected prior to the dosing of rucaparib on days 5, 9, 11, 15, and 19–23.
Other PK parameters, calculated for the probe drugs, included half-life (t1/2), tmax, apparent total clearance of drug after oral administration (CL/F), and apparent volume of distribution during terminal phase (VZ/F). The PK parameter calculated for rucaparib at steady state was trough plasma concentration (Cmin). PK parameters were calculated by noncompartmental analysis using Phoenix WinNonlin, version 8.1 (Certara, Princeton, NJ).
Details are provided in Online Resource 1.
The LC consisted of a Gemini NX C18 column (2 x 50 mm, 3 μm, Phenomenex, Torrance, CA) and was eluted with a gradient consisting of 0.1% acetic acid in water as mobile phase A and with 100% acetonitrile as mobile phase B at an initial flow rate of 0.5 mL/min at room temperature. The MS/MS consisted of an AB SCIEX API5000 system and was operated with Analyst version 1.6.2 in TurboIonSpray and positive ionization mode. […] The concentration range for quantitation was 0.1–100 ng/mL.
Separation between potential metabolites and interfering endogenous compounds was achieved by ultra-high performance liquid chromatography with a CSH C18 column at 40°C and gradient elution using 0.1% formic acid in water as mobile phase A and acetonitrile as mobile phase B, operating at an initial flow rate of 0.800 mL/min. A triple quadrupole mass spectrometer (Triple Quad 6500) equipped with a turbo ion spray source was used for detection in positive ion mode.

[2] = DDI analysis: geometric mean ratio of probe drug PK with versus without rucaparib; format: in vivo, human; settings: Arm B; steady-state rucaparib
Text: The DDI analysis population included patients who completed the DDI assessment per protocol and had sufficient PK data to calculate Cmax and AUC of the probe drug with and without rucaparib. […] With the assumption that intrapatient PK variability would be 35% for the probe drugs, a total enrollment of 32 patients was planned for this study: 16 for Arm A and 16 for Arm B. […] The primary PK parameters were natural log-transformed before assessment with a paired t test.

[3] = plasma, 600 mg, with rucaparib 600 mg BID (day 19), single oral dose, plasma, read-out: AUC0–inf, GM (%CV)
[4] = plasma, 600 mg, with rucaparib 600 mg BID (day 19), single oral dose, plasma, read-out: AUC0–inf, Mean (SD)
[5] = plasma, 600 mg, with rucaparib 600 mg BID (day 19), single oral dose, plasma, read-out: AUC0–inf, Median (range)
[6] = plasma, 600 mg, with rucaparib 600 mg BID (day 19), single oral dose, plasma, read-out: AUC0–last, GM (%CV)
[7] = plasma, 600 mg, with rucaparib 600 mg BID (day 19), single oral dose, plasma, read-out: AUC0–last, Mean (SD)
[8] = plasma, 600 mg, with rucaparib 600 mg BID (day 19), single oral dose, plasma, read-out: AUC0–last, Median (range)
[9] = plasma, 600 mg, with rucaparib 600 mg BID (day 19), single oral dose, plasma, read-out: Cmax, GM (%CV)
[10] = plasma, 600 mg, with rucaparib 600 mg BID (day 19), single oral dose, plasma, read-out: Cmax, Median (range)
[11] = plasma, 600 mg, with rucaparib 600 mg BID (day 19), single oral dose, plasma, read-out: t1/2, GM (%CV) (converted)
[12] = plasma, 600 mg, with rucaparib 600 mg BID (day 19), single oral dose, plasma, read-out: t1/2, Mean (SD) (converted)
[13] = plasma, 600 mg, with rucaparib 600 mg BID (day 19), single oral dose, plasma, read-out: t1/2, Median (range) (converted)
[14] = plasma, 600 mg, with rucaparib 600 mg BID (day 19), single oral dose, read-out: VZ/F, GM (%CV)
[15] = plasma, 600 mg, with rucaparib 600 mg BID (day 19), single oral dose, read-out: VZ/F, Mean (SD)
[16] = plasma, 600 mg, with rucaparib 600 mg BID (day 19), single oral dose, read-out: VZ/F, Median (range)
[17] = plasma, without rucaparib (day 1), single oral dose, plasma, PK analysis population, read-out: Cmax, Mean (SD)
[18] = plasma, without rucaparib (day 1), single oral dose, plasma, read-out: AUC0–inf, GM (%CV)
[19] = plasma, without rucaparib (day 1), single oral dose, plasma, read-out: AUC0–inf, Mean (SD)
[20] = plasma, without rucaparib (day 1), single oral dose, plasma, read-out: AUC0–inf, Median (range)
[21] = plasma, without rucaparib (day 1), single oral dose, plasma, read-out: AUC0–last, Mean (SD)
[22] = plasma, without rucaparib (day 1), single oral dose, plasma, read-out: AUC0–last, Median (range)
[23] = plasma, without rucaparib (day 1), single oral dose, plasma, read-out: Cmax, GM (%CV)
[24] = plasma, without rucaparib (day 1), single oral dose, plasma, read-out: Cmax, Median (range)
[25] = plasma, without rucaparib (day 1), single oral dose, plasma, read-out: t1/2, GM (%CV) (converted)
[26] = plasma, without rucaparib (day 1), single oral dose, plasma, read-out: t1/2, Mean (SD) (converted)
[27] = plasma, without rucaparib (day 1), single oral dose, plasma, read-out: t1/2, Median (range) (converted)
[28] = plasma, without rucaparib (day 1), single oral dose, read-out: VZ/F, GM (%CV)
[29] = plasma, without rucaparib (day 1), single oral dose, read-out: VZ/F, Mean (SD)
[30] = plasma, without rucaparib (day 1), single oral dose, read-out: VZ/F, Median (range)
[31] = without rucaparib (day 1), single oral dose, plasma
[32] = with rucaparib 600 mg BID (day 19), single oral dose
[33] = without rucaparib (day 1), single oral dose

Which “detected in human plasma up to (postdose)” value ([1]; with rucaparib) does the source give for `C#C[C@]1(O)CC[C@H]2[C@@H]3CCc4cc(O)ccc4[C@H]3CC[C@@]21C` [ethinylestradiol] here?
The value was at most 72 h.

What about the “detected in human plasma up to (postdose)” value ([1]; without rucaparib) of the same compound?
Its value is “up to 48 h”.

What about the AUC(0-inf) [1, 3] of the same compound?
Its AUC(0-inf) is 0.00141 µg·h/mL.

What about the AUC(0-inf) [1, 4] of the same compound?
The AUC(0-inf) was 0.00149 µg·h/mL.

And the AUC(0-inf) [1, 5]?
The AUC(0-inf) was 0.00137 µg·h/mL.

And the AUC(0-t) [1, 6]?
Its AUC(0-t) is 0.00115 µg·h/mL.

What about the AUC(0-t) [1, 7] of the same compound?
Its AUC(0-t) is 0.00124 µg·h/mL.

And the AUC(0-t) [1, 8]?
Its AUC(0-t) is 0.00118 µg·h/mL.

What about the Cmax [1, 9] of the same compound?
The Cmax was 0.0784 ng/mL.

And the Cmax [1, 10]?
Its Cmax is 0.0756 ng/mL.

What about the half-life [1, 11] of the same compound?
The half-life was 24.8 h.

And the half-life [1, 12]?
The half-life was 30 h.

And the half-life [1, 13]?
The half-life was 27.1 h.

And the Vd/F [1, 14]?
The Vd/F was 653 L.

What about the Vd/F [1, 15] of the same compound?
Its Vd/F is 684 L.

And the Vd/F [1, 16]?
The Vd/F was 620 L.

What about the Cmax [1, 17] of the same compound?
Its Cmax is 0.0792 ng/mL.

What about the AUC(0-inf) [1, 18] of the same compound?
Its AUC(0-inf) is 0.000962 µg·h/mL.

What about the AUC(0-inf) [1, 19] of the same compound?
The AUC(0-inf) was 0.000994 µg·h/mL.

And the AUC(0-inf) [1, 20]?
The AUC(0-inf) was 0.001 µg·h/mL.

What about the AUC(0-t) [1, 21] of the same compound?
Its AUC(0-t) is 0.000804 µg·h/mL.

What about the AUC(0-t) [1, 22] of the same compound?
Its AUC(0-t) is 0.000775 µg·h/mL.

What about the Cmax [1, 23] of the same compound?
Its Cmax is 0.0732 ng/mL.

And the Cmax [1, 24]?
Its Cmax is 0.0734 ng/mL.

And the half-life [1, 25]?
The half-life was 15.9 h.

And the half-life [1, 26]?
The half-life was 17 h.

And the half-life [1, 27]?
The half-life was 18.1 h.

What about the Vd/F [1, 28] of the same compound?
Its Vd/F is 772 L.

What about the Vd/F [1, 29] of the same compound?
Its Vd/F is 792 L.

What about the Vd/F [1, 30] of the same compound?
The Vd/F was 772 L.

What about the Tmax [1, 31] of the same compound?
Its Tmax is 1 h.

What about the “Cmax, Mean (SD)” value ([1]; with rucaparib 600 mg BID (day 19), single oral dose, plasma, PK analysis population) of the same compound?
The value was 0.0893 (0.0443) ng/mL.

And the “change of median tmax with rucaparib” value [1]?
Its value is 0.5 h.

And the “AUC increase with rucaparib” value [2]?
Its value is “approximately 1.4 fold”.

What about the “Cmax increase with rucaparib” value [2] of the same compound?
The value was under 1.25 fold.

Which results are given for `C#C[C@]1(O)CC[C@H]2[C@@H]3CCC4=CC(=O)CC[C@@H]4[C@H]3CC[C@@]21CC` [levonorgestrel]?
Cmax ([1]; plasma, 600 mg, with rucaparib 600 mg BID (day 19), single oral dose, plasma, PK analysis population, read-out: Cmax, Mean (SD)): 3.77 ng/mL; AUC(0-inf) [1, 3]: 0.102 µg·h/mL; AUC(0-inf) [1, 4]: 0.109 µg·h/mL; AUC(0-inf) [1, 5]: 0.0873 µg·h/mL; AUC(0-t) [1, 6]: 0.0775 µg·h/mL; AUC(0-t) [1, 7]: 0.086 µg·h/mL; AUC(0-t) [1, 8]: 0.0804 µg·h/mL; Cmax [1, 9]: 3.43 ng/mL; Cmax [1, 10]: 3.48 ng/mL; half-life [1, 11]: 46.6 h; half-life [1, 12]: 50 h; half-life [1, 13]: 43.6 h; Vd/F [1, 14]: 77.6 L; Vd/F [1, 15]: 82.8 L; Vd/F [1, 16]: 85.6 L; Cmax [1, 17]: 3.32 ng/mL; AUC(0-inf) [1, 18]: 0.064 µg·h/mL; AUC(0-inf) [1, 19]: 0.0727 µg·h/mL; AUC(0-inf) [1, 20]: 0.0554 µg·h/mL; AUC(0-t) ([1]; plasma, without rucaparib (day 1), single oral dose, plasma, read-out: AUC0–last, GM (%CV)): 0.0529 µg·h/mL; AUC(0-t) [1, 21]: 0.0597 µg·h/mL; AUC(0-t) [1, 22]: 0.0453 µg·h/mL; Cmax [1, 23]: 3.17 ng/mL; Cmax [1, 24]: 3.29 ng/mL; half-life [1, 25]: 38.5 h; half-life [1, 26]: 41.1 h; half-life [1, 27]: 37.1 h; Vd/F [1, 28]: 103 L; Vd/F [1, 29]: 113 L; Vd/F [1, 30]: 114 L; Tmax ([1]; with rucaparib 600 mg BID (day 19), single oral dose, plasma): 1.5 h; Tmax [1, 31]: 1.51 h; CL/F, Mean (SD) [1, 32]: 1.57 (0.531) L/h; CL/F, Median (range) [1, 32]: 1.72 (0.701–2.39) L/h; change of median tmax with rucaparib [1]: remained the same; CL/F, Mean (SD) [1, 33]: 2.57 (1.01) L/h; CL/F, Median (range) [1, 33]: 2.71 (0.891–3.84) L/h; AUC increase with rucaparib [2]: ~1.6 fold; Cmax increase with rucaparib [2]: < 1.25 fold
